The record followed here is paper PMC7884692, “Arginine glycosylation enhances methylglyoxal detoxification” (Scientific Reports, 2021).

Molecules are shown by their SMILES.

The experiment deals with T1, GloA (Salmonella enterica, UniProt P0A1Q2).
T1 construct: full length, His-tag (modified pET28a, tac promoter), E. coli BL21(DE3); unglycosylated form
T1 sequence (P0A1Q2 1-135): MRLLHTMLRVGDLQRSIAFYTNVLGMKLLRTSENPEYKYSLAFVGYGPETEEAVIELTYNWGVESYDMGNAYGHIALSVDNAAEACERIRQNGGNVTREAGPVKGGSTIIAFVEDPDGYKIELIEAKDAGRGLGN
The experiment is described as follows: S-lactoylglutathione production at OD240. Type of experiment: biochemical. To be noted: unglycosylated GloA 50 nM; hemithioacetal from 5 mM glutathione + 5 mM methylglyoxal; 100 mM NaH2PO4 pH 7.0.

As to `C[C@@H](O)C(=O)SC[C@H](NC(=O)CC[C@H](N)C(=O)O)C(=O)NCC(=O)O` [S-lactoylglutathione], the “S-lactoylglutathione production at OD240” value was “both hemithioacetal consumption and S-lactoylglutathione production was measured as a function of time”.
